For orientation: melting point means the temperature of the solid-liquid transition.

For data set [1], the system named is MCF-7 human breast adenocarcinoma. Nature of the data set: Tumor cell culture cytotoxicity (MTT dye reduction), MCF-7. It is filed as cell-based.
Experimental: (§1) SW480 and WiDr colon adenocarcinomas, MCF-7 breast adenocarcinoma, A427 lung carcinoma and MOLT-4 T-cell leukemia were used for the primary screening of compounds. […] MCF-7, A427 and SW480 were grown in the above medium further supplemented with sodium pyruvate.
(§2) Cells are seeded into 96-well plates using a Perkin-Elmer Pro/pette. SW480 and A427 were seeded at 8,000 cells per well, MCF-7 at 10,000, Widr at 7500, and MOLT-4 at 12,500 cells per well, all in 150 µl of medium. Prior to the addition of drugs, cultures were incubated for 24 hrs at 37°. Compounds were added at 2×concentration in 150 l of medium and each concentration was assayed in triplicate. If DMSO or ethanol were used to solubilize compounds, appropriate controls were run if the concentration exceeded 0.01%. Cultures were incubated for 72 hours (96 hours for SW480 and MCF-7) in a 37° humidified incubator at 5% CO2. Inhibition of cell growth was measured using the MTT dye reduction assay.
(§3) Cell dilutions for a standard curve were prepared from a 72 hour log-phase culture. Serial dilutions were seeded in triplicate in 96-well plates and incubated at 37 degrees for one hour. MTT (3-(4,5-dimethylthiazol-2-yl)-2,5-diphenyltetrazolium bromide) was dissolved in PBS at 5 mg/ml and sonicated for 30 seconds. Using the Perkin Elmer Pro/pette, 200 μl of medium was removed and 100 μl of MTT added to the wells of the standard curve and test plates. Suspension cultures were spun for 5 min at 1000 rpm before removing medium from the wells. Plates were incubated for 1 hour at 370 on a platform shaker. Following this incubation 100 ml of medium was removed from the wells and 100 μl of DMSO added to each well. The plates were sonicated for approximately 10 seconds to solubilize the precipitated formazan dye. The absorbance of each well was measured using a Titertek Multiscan MC microtiter plate reader at 570 nm with a reference wavelength of 750 nm. Data was collected using a Mariachi Seed-2 and stored and analyzed using an IBM-AT and Lotus 1-2-3 software.
Data set [2] has as its system SW480 human colon adenocarcinoma. Nature of the data set: Tumor cell culture cytotoxicity (MTT dye reduction), SW480. The note with it: Homo sapiens.
Experimental: as §1, §2, §3
Data set [3] concerns the target T1, Mammalian Thymidylate Synthase (Homo sapiens, UniProt P04818).
T1 construct: made in house; host or cells: Escherichia coli
Nature of the data set: Thymidylate synthase inhibition, tritium release assay. It is filed as biochemical.

[4] abbreviates: MCF7, Table F, fully aromatic p-aminobenzoylglutamates, read-out: Cell Culture Cytotoxicity CCCT MCF-7.
Setting [5] is: SW480, read-out: Cell Culture Cytotoxicity CCCT SW-480, Table F, fully aromatic p-aminobenzoylglutamates.

Where two headings read alike, the source gives them in different places.

T1 sequence (P04818 whole entry): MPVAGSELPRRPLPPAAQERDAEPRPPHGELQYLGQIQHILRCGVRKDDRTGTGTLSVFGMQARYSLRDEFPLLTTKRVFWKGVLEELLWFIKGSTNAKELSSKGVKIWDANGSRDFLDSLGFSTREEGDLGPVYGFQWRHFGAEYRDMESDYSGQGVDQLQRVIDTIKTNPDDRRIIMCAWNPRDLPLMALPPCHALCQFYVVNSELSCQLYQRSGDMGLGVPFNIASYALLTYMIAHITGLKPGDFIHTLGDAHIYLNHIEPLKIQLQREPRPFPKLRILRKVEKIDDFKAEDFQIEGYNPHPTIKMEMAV

On to `Cc1nc2ccc3c(S(=O)(=O)Nc4ccc(C(=O)N[C@@H](CCC(=O)O)C(=O)O)cc4)cccc3c2c(=O)[nH]1` [N-(4-((1,2,-Dihydro-3-methyl-1-oxobenzo(f)quinazolin-7-yl)sulfonamido)benzoyl)-L-glutamic acid], for which the IC50 in data set [1] (setting [4]) was found to be 50000 nM.
Consider `Cc1nc2ccc3ccc(CNc4ccc(C(=O)N[C@@H](CCC(=O)O)C(=O)O)c(F)c4)cc3c2c(=O)[nH]1` [N-(4-(((1,2-Dihydro-3-methyl-1-oxobenzo(f)quinazolin-9-yl)methyl)amino)-2-fluorobenzoyl)-L-glutamic acid], for which the IC50 in data set [2] (setting [5]) came to 20 nM; in data set [1] (setting [4]) it was 0.7 nM.
In the case of `Nc1nc2c(c(=O)[nH]1)-c1cc(S(=O)(=O)Nc3ccc(C(=O)N[C@@H](CCC(=O)O)C(=O)O)cc3)ccc1CC2` [N-(4-((3-Amino-1,2,5,6-tetrahydro-1-oxobenzo(f)quinazolin-9-yl)-sulfonamido)benzoyl)-L-glutamic acid], the IC50 came out at 7900 nM in data set [2] (SW480, read-out: Cell Culture Cytotoxicity CCCT SW-480, Table G, dihydrobenzoquinazoline p-aminobenzoylglutamates) and 650 nM in data set [1] (MCF7, Table G, dihydrobenzoquinazoline p-aminobenzoylglutamates, read-out: Cell Culture Cytotoxicity CCCT MCF-7).
As for `Cc1nc2ccc3ccc(CN(C)c4ccc(C(=O)N[C@@H](CCC(=O)O)C(=O)O)cc4)cc3c2c(=O)[nH]1` [N-(4-((1,2-Dihydro-3-methyl-1-oxobenzo(f)quinazolin-9-yl)methyl)methylamino)benzoyl)-L-glutamic acid], the IC50 in data set [2] (setting [5]) is 1500 nM; in data set [1] (setting [4]), 18 nM.
Molecule `Nc1nc2ccc3cc(S(=O)(=O)Nc4ccc(C(=O)N[C@@H](CCC(=O)O)C(=O)O)cc4)c(Br)cc3c2c(=O)[nH]1` [N-(4-((3-Amino-9-bromo-1,2-dihydro-1-oxobenzo(f)quinazolin-8-yl)sulfonamido)benzoyl)-L-glutamic acid] yielded a melting point of 238 to 242 °C. In data set [2] (setting [5]), the IC50 is greater than 50000 nM. Further, the IC50 in data set [1] (setting [4]) is greater than 50000 nM.
Take `Cc1nc2ccc3ccc(CNc4ccc5c(c4)CN([C@@H](CCC(=O)O)C(=O)O)C5=O)cc3c2c(=O)[nH]1` [(S)-2-(5-(((1,2-Dihydro-3-methyl-1-oxobenzo(f)quinazolin-9-yl)methyl)amino)-1-oxo-2-isoindolinyl)glutaric acid]: the IC50 in data set [2] (setting [5]) stood at 0.8 nM; in data set [1] (setting [4]) it was 0.2 nM.
Turning to `Cc1nc2ccc3ccc(CNc4ccc(C(=O)N[C@@H](CCC(=O)O)C(=O)O)cc4)cc3c2c(=O)[nH]1` [N-(4-(((1,2-Dihydro-3-methyl-1-oxobenzo(f)quinazolin-9-yl)methyl)amino)benzoyl)-L-glutamic acid], the figures for the IC50 in data set [2] (setting [5]) and in data set [1] (setting [4]) were 350 nM and 7.5 nM, respectively.
As for `Cc1nc2ccc3ccc(COc4ccc(C(=O)N[C@@H](CCC(=O)O)C(=O)O)cc4)cc3c2c(=O)[nH]1` [N-(4-((1,2-Dihydro-3-methyl-1-oxobenzo(f)quinazolin-9-yl)methoxy)benzoyl)-L-glutamic acid], the figures for the IC50 in data set [2] (setting [5]) and in data set [1] (setting [4]) were 70000 nM and 7000 nM, respectively.
As to `CC(=O)c1ccc(NCc2ccc3ccc4nc(N)[nH]c(=O)c4c3c2)cc1` [3-Amino-9-((4-acetylanilino)methyl)benzo(f)quinazolin-1(2H)-one], the IC50 is 45 nM in data set [2] (SW480, read-out: Tumor Cell Culture Cytotoxicity IC50 SW480, Table B, fully aromatic 3-amino derivatives); 30 nM in data set [1] (MCF7, Table B, fully aromatic 3-amino derivatives, read-out: Tumor Cell Culture Cytotoxicity IC50 Other (MCF-7)); less than 1000 nM in data set [3].
Take `Nc1nc2ccc3ccc(CNc4ccc(C(=O)N[C@@H](CCC(=O)O)C(=O)O)cc4)cc3c2c(=O)[nH]1` [N-(4-(((3-Amino-1,2-dihydro-1-oxobenzo(f)quinazolin-9-yl)methyl)amino)benzoyl)-L-glutamic acid]: the results for the IC50 in data set [2] (setting [5]) and in data set [1] (setting [4]) were 600 nM and 25 nM, respectively.

For the origin of these results see patent publication US6762188B1, “Pharmaceutically active benzoquinazoline compounds” (SmithKline Beecham Corporation, priority 1990, dated 2004).
